Results taken from patent US10167518B2, “Methods of stratifying patients for treatment with retinoic acid receptor-alpha agonists” (Syros Pharmaceuticals, Inc., priority 2015, dated 2019).

Experiments:
RAR gamma = target: T1, RAR gamma (Homo sapiens, UniProt P13631); test: SelectScreen Nuclear Profiling, agonist specificity for RAR gamma; assay type: cell-based
T1 sequence (P13631 1-454): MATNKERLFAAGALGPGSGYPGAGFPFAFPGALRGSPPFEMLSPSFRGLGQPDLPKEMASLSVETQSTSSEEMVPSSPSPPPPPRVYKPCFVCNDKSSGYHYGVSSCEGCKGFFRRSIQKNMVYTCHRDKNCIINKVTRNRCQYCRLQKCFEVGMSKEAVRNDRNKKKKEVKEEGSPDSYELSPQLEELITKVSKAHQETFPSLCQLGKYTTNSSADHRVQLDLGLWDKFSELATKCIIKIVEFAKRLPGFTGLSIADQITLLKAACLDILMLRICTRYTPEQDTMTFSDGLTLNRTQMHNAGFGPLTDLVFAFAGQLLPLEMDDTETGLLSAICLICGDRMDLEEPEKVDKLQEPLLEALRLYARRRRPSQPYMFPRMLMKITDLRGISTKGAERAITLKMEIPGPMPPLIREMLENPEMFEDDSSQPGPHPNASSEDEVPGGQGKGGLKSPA
Procedure: (§1) The agonist specificity of the various test compounds for each type of RaR is assessed at Life Technologies using their SelectScreen® Nuclear Profiling Services.

RAR alpha = target: T2, RAR alpha (Homo sapiens, UniProt P10276); test: SelectScreen Nuclear Profiling, agonist specificity for RAR alpha; assay type: cell-based; details: for EC50 / RAR alpha % max: agonist specificity, SelectScreen; for RAR-a/RAR-g Selectivity % max: ratio of RAR alpha to RAR gamma % max; for RAR-a/RAR-g Selectivity EC50: ratio of RAR gamma to RAR alpha EC50
T2 sequence (P10276 1-462): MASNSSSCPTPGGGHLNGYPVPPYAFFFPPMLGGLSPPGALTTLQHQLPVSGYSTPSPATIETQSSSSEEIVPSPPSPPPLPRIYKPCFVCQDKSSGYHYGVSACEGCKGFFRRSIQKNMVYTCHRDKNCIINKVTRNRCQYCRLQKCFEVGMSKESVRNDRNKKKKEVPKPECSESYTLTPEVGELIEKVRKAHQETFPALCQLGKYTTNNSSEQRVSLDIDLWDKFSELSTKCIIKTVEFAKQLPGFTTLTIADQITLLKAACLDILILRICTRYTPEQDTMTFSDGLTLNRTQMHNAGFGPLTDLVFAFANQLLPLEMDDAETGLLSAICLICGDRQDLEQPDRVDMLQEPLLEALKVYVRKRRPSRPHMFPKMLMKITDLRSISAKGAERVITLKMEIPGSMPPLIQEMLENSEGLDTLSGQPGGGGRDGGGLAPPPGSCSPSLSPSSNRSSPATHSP
Procedure: as §1

RAR beta = target: T3, RAR beta (Homo sapiens, UniProt P10826); test: SelectScreen Nuclear Profiling, agonist specificity for RAR beta; assay type: cell-based
T3 sequence (P10826 1-455): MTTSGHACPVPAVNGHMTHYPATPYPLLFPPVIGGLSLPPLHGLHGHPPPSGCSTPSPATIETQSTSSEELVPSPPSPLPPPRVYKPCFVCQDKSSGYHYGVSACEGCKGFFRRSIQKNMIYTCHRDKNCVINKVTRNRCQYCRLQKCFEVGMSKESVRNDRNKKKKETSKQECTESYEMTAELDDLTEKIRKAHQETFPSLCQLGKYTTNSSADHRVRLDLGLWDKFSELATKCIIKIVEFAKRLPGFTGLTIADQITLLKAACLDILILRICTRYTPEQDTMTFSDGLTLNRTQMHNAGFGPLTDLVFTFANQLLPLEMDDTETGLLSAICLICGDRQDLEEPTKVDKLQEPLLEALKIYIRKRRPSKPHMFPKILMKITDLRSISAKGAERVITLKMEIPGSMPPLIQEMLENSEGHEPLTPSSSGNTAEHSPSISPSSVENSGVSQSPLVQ
Procedure: as §1

[1] = test system: AML cell lines (SigM5, OCI M1, MV411, HEL, Kasumi); test: Cell viability screening of AML cell lines (ATPlite/CyQuant); assay type: cell-based
Procedure: On the day of the experiment, cells are homogenized using Accumax (EMD Millipore), counted, and adjusted to 40,000 cells/ml for breast cancer lines and 60,000 cells/mL for AML in appropriate growth media. Using a Biotek EL406, 50 μl of cells are distributed into white (ATPlite) or black (CyQuant) 384-well plates (Thermo). Cells are returned to 37° C. incubator to allow adhesion. After three hours, compounds are added to plates using a 20 nl 384-well pin transfer manifold on a Janus workstation. Stocks are arrayed in 10 point quadruplicate dose response in DMSO stock in 384-well compound plates. After addition of compound, plates are incubated for five or ten days in a 37° C. incubator.
Cell viability is read out using ATPlite (Perkin Elmer) or CyQuant (Life Technologies). For ATPlite, plates are removed from the incubator and brought to room temperature prior to use. Lyophilized powder of ATPlite reagent is resuspended in lysis buffer and diluted 1:2 with distilled water. 25 μL of this solution is added to each well using the Biotek liquid handler. Plates are incubated for 15 min at room temperature before the luminescence signal was read on an Envision Plate Reader (Perkin Elmer). For CyQuant, reagents are mixed as per manufacturer's instructions in PBS (Gibco). Reagent are added using a multichannel pipet and plates are replaced in incubator for 30 minutes prior to readout on an Envision Plate Reader (Perkin Elmer).
Data acquired as described is stored and grouped in Microsoft's Excel and analyzed using GraphPad Prism Software. […] Edge wells were excluded.

[2] = test system: breast cancer cell lines (SKBR3, Au565, ZR75, Hcc1143); test: Cell viability screening of breast cancer cell lines (ATPlite/CyQuant); assay type: cell-based; details: four breast cancer cell lines, 5 days of treatment, FIG. 7
Procedure: All cell lines are obtained from ATCC and cultured at 37° C. in 5% CO2. All are grown in RPMI1640 supplemented with 10 mM HEPES buffer, 2 mM L-glutamine, 50 U/mL penicillin, 50 […] and 10% fetal bovine serum (FBS, all from Invitrogen). Cells lines included AU565, SKBR3, T47D, HCC1143, MCF7, ZR-75-1, and HCC1569.
On the day of the experiment, cells are homogenized using Accumax (EMD Millipore), counted, and adjusted to 40,000 cells/ml for breast cancer lines and 60,000 cells/mL for AML in appropriate growth media. Using a Biotek EL406, 50 μl of cells are distributed into white (ATPlite) or black (CyQuant) 384-well plates (Thermo). Cells are returned to 37° C. incubator to allow adhesion. After three hours, compounds are added to plates using a 20 nl 384-well pin transfer manifold on a Janus workstation. […]
Cell viability is read out using ATPlite (Perkin Elmer) or CyQuant (Life Technologies). […] Plates are incubated for 15 min at room temperature before the luminescence signal was read on an Envision Plate Reader (Perkin Elmer). […] Reagent are added using a multichannel pipet and plates are replaced in incubator for 30 minutes prior to readout on an Envision Plate Reader (Perkin Elmer).
Data acquired as described is stored and grouped in Microsoft's Excel and analyzed using GraphPad Prism Software. […]

[3] = test system: AM8096 AML patient sample-derived xenograft; test: AML patient sample-derived xenograft AM8096, % human CD45+ cells; assay type: in vivo, mice; details: 6 mg per kg daily oral, after 35 days
Procedure: (§2) Different AML patient sample (AM8096, AM5512, AM7577 and AM7440)-derived xenograft models in BALB/c nude immunocompromised mice are prepared by Crown Biosciences (Beijing, China) essentially as follows.
(§3) Approximately 2×10^6 cells from each patient sample are suspended in 100 μL PBS and injected into separate mice (n=3 for each different patient sample and for the control) by IV tail injection. For AM5512, AM7577 and AM7440 xenografts, tumor burden is considered high enough to start treatment when the concentration of human CD45^+ cells reaches ˜1-5% in the animal's peripheral blood. Human CD45^+ cells are detected in mouse blood (obtained via eye bleeds) using a fluorescence activated cell sorter and FITC anti-human CD45 (Biolegend, Cat#304037). For AM8096 xenografts, treatment is begun 40 days after injection of cells.
(§4) Human CD45^+ cell levels in peripheral blood from the treated animals and control animals are measured once a week.

[4] = test system: AM7577 AML patient sample-derived xenograft; test: AML patient sample-derived xenograft AM7577, % human CD45+ cells; assay type: in vivo, mice; details: 6 mg per kg daily oral
Procedure: as §2, §3, §4

[5] = test system: AM7440 AML patient sample-derived xenograft; test: AML patient sample-derived xenograft AM7440, % human CD45+ cells; assay type: in vivo, mice; details: 6 mg per kg daily oral
Procedure: as §2, §3, §4

[6] = test system: AM5512 AML patient sample-derived xenograft; test: AML patient sample-derived xenograft AM5512, % human CD45+ cells and survival
Procedure: AM5512 xenograft mice are prepared as described above.

[7] = test system: HCC1954 tumor cells xenograft; test: HCC1954 breast cancer cell line-derived xenograft, tumor volume; assay type: in vivo, mice
Procedure: Breast cancer cell line (HCC1954)-derived xenograft models in BALB/c nude immunocompromised mice are prepared by Crown Biosciences (Beijing, China) essentially as follows.
Six to eight week old BALB/c nude immunocompromised mice, weighing between 18-20 g are inoculated subcutaneously at the right flank region with HCC1954 tumor cells (5×10^6) in 0.1 ml of PBS (1:1 matrigel) for tumor development. […] The final dosage in mice is 6 mg per kg per day in the high dose arm (n=10) and 3 mg per kg per day in the low dose arm (n=10) in a 10 ml/kg volume. […] Tumor volume is measured twice weekly by caliper measurement.

Structure (SMILES) | EC50 (RAR gamma) [nM] | RAR gamma % max (RAR gamma) [%] | EC50 (RAR alpha) [nM] | RAR alpha % max (RAR alpha) [%] | RAR beta % max (RAR beta) [%] | EC50 (RAR beta) [nM] | further results
CC1(C)CC=C(C#Cc2ccccc2)c2cc(/C=C/c3ccc(C(=O)O)cc3)ccc21 [BMS493] | 512 | −13.41 | 27.4 | −3.417 | 0 |  | 
CC1(C)CCC(C)(C)c2cc(NC(=O)c3ccc(C(=O)O)cc3)ccc21 [tamibarotene] |  | 106.1 |  |  | 114.9 |  | responsiveness of cell line ([1]; HEL cells): non-responsive; responsiveness of cell line ([1]; MV411 cells): tamibarotene-responsive; sensitivity order of AML cell lines (viability) ([1]; SigM5, MV411, HEL, Kasumi, FIGS. 23A-B): SigM5>MV411>HEL=Kasumi; sensitivity order of AML cell lines (viability) ([1]; three AML cell lines, 5 days of treatment, FIG. 9): SigM5>OCI M1>HEL; sensitivity order of breast cancer cell lines (viability) [2]: SKBR3>Au565>ZR75>Hcc1143; total % of CD45+ cells and % in blood, bone marrow and spleen vs vehicle [3]: significant reduction; % human CD45+ cells (overall, blood, bone marrow, spleen) vs vehicle [4]: no significant reduction; tumor volume (overall, blood, bone marrow, spleen) vs vehicle [5]: no significant reduction; % CD45+ cells vs vehicle control and ATRA-treated animals ([6]; 3 mg/kg BID, after 28 days): significant reduction; animals surviving the course of the experiment ([6]; 3 mg/kg BID, n=7): 5 of the 7; total % of CD45+ cells and % in blood, bone marrow and spleen vs vehicle ([6]; 6 mg per kg daily oral, after 35 days): significant reduction; tumor volume ([7]; 3 and 6 mg per kg per day, QD PO, up to 21 days): reduces tumor volume in this model in a dose-dependent manner; reduction in tumor volume, p (t-test, Welch's correction) ([7]; high dose arm, 6 mg per kg per day QD PO): 0.0048; reduction in tumor volume, p (t-test, Welch's correction) ([7]; low dose arm, 3 mg per kg per day QD PO): 0.0552
CC1=C(/C=C/C(C)=C/C=C/C(C)=C/C(=O)O)C(C)(C)CCC1 [Tretinoin, all-trans retinoic acid] |  | 99.37 |  | 149.4 | 92.77 |  | % CD45+ cells vs vehicle control ([6]; 4 mg/kg BID, after 14 days): reduction in % CD45^+ cells; survival ([6]; 4 mg/kg BID, n=7): none of those mice survived past day 21
CC1(C)CCC(C)(C)c2cc(C(=O)Nc3ccc(C(=O)O)cc3)ccc21 [AM580] |  | 87.06 |  |  | 78.24 |  | 
CC1(C)CCSc2ccc(C#Cc3ccc(C(=O)O)cn3)cc21 [Tazarotenic, Tazarotenic acid] | 1.1 | 78.33 | 0.353 | 121.4 | 71.88 | 5.17 | RAR-a/RAR-g Selectivity % max (RAR alpha): 1.5499; RAR-a/RAR-g Selectivity EC50 (RAR alpha): 3.1172
COc1ccc(-c2ccc3cc(C(=O)O)ccc3c2)cc1C12CC3CC(CC(C3)C1)C2 [Adapalene] |  | 87.7 | 5.01 | 102.2 | 69.36 | 9.73 | 
CC1(C)CC=C(c2cnc3ccccc3c2)c2cc(C(=O)Nc3ccc(C(=O)O)cc3)ccc21 [BMS195614] | 434 | −14.57 | 1340 | −31.01 | 0 |  | 
CC1(C)C(=O)C(C)(C)c2cc(C(=O)Nc3ccc(C(=O)O)cc3)ccc21 [BMS753] | 136 | 19.83 | 1.43 | 122.2 | 6 | 701 | specificity for RARA over RaR-γ (RAR alpha; comparison among tested compounds): greatest specificity for RARA over RaR-γ; RAR-a/RAR-g Selectivity % max (RAR alpha): 6.1624; RAR-a/RAR-g Selectivity EC50 (RAR alpha): 94.8396
